The test system of this series is rodent lifetime carcinogenesis bioassay, tumor incidence TD50. Kind of series: chronic cancer bioassays in animals – CPDB, compiled studies (AID 1745844).

The structures appear in SMILES notation. Active and inactive are the calls of the source. No rule for the calls is given here.

The TD50 is the dose at which the toxic effect under study appears in half of the subjects.

For the molecule `C=C(Cl)Cl`, the TD50 (mouse, strain B6C3F1, females, by gavage, site: all sites, lesion: leukemia + lymphoma, dosed 104 weeks, study length 104 weeks) was 3.9 mg/kg/day (inactive); the TD50 (mouse, strain B6C3F1, females, by gavage, site: all sites, lesion: lymphoma, dosed 104 weeks, study length 104 weeks) was 4.02 mg/kg/day; the TD50 (mouse, strain B6C3F1, females, by gavage, site: any site (literature study), lesion: several types, types named in the paper, dosed 104 weeks, study length 104 weeks) was found to be 2.09 mg/kg/day; the TD50 (mouse, strain B6C3F1, females, by gavage, site: lung, lesion: alveolar/bronchiolar adenoma + alveolar/bronchiolar carcinoma, dosed 104 weeks, study length 104 weeks) stood at 66.7 mg/kg/day; the TD50 (mouse, strain B6C3F1, males, by gavage, site: any site (literature study), lesion: several types, types named in the paper, dosed 104 weeks, study length 104 weeks) was 34.8 mg/kg/day (inactive); the TD50 (mouse, strain B6C3F1, males, by gavage, site: liver, lesion: hepatocellular adenoma + hepatocellular carcinoma + neoplastic nodule, dosed 104 weeks, study length 104 weeks) turned out to be 133 mg/kg/day. Besides, the TD50 by setting is: (mouse, strain B6C3F1, males, by gavage, site: lung, lesion: alveolar/bronchiolar adenoma + alveolar/bronchiolar carcinoma, dosed 104 weeks, study length 104 weeks) 60.4 mg/kg/day; (mouse, strain Charles River CD1, females, inhaled, site: liver, lesion: hemangiosarcoma, dosed 52 weeks, study length 52 weeks) 170 mg/kg/day; (mouse, strain Charles River CD1, females, inhaled, site: liver, lesion: hepatoma, dosed 52 weeks, study length 52 weeks) 170 mg/kg/day; (mouse, strain Swiss, females, inhaled, site: any site (literature study), lesion: malignant tumor, dosed 52 weeks, study length 126 weeks) 86.1 mg/kg/day; (mouse, strain Swiss, females, inhaled, site: any site (literature study), lesion: several types, types named in the paper, dosed 52 weeks, study length 126 weeks) 30.9 mg/kg/day; (mouse, strain Swiss, females, inhaled, site: liver, lesion: hepatoma, dosed 52 weeks, study length 126 weeks) 858 mg/kg/day. The TD50 is, setting by setting: (mouse, strain Swiss, females, inhaled, site: lung, lesion: several types, types named in the paper, dosed 52 weeks, study length 126 weeks) 124 mg/kg/day; (mouse, strain Swiss, females, inhaled, site: mammary gland, lesion: several types, types named in the paper, dosed 52 weeks, study length 126 weeks) 80.9 mg/kg/day; (mouse, strain Swiss, males, inhaled, site: any site (literature study), lesion: malignant tumor, dosed 52 weeks, study length 126 weeks) 50.3 mg/kg/day; (mouse, strain Swiss, males, inhaled, site: any site (literature study), lesion: several types, types named in the paper, dosed 52 weeks, study length 126 weeks) 17.9 mg/kg/day; (mouse, strain Swiss, males, inhaled, site: kidney, lesion: adenocarcinoma, dosed 52 weeks, study length 126 weeks) 22 mg/kg/day; (mouse, strain Swiss, males, inhaled, site: liver, lesion: angiosarcoma, dosed 52 weeks, study length 126 weeks) 566 mg/kg/day. Further, the TD50 is, setting by setting: (mouse, strain Swiss, males, inhaled, site: lung, lesion: several types, types named in the paper, dosed 52 weeks, study length 126 weeks) 59.9 mg/kg/day; (rat, strain Sprague-Dawley Spartan, females, in drinking water, site: liver, lesion: hepatocellular carcinoma, dosed 104 weeks, study length 104 weeks) 654 mg/kg/day (inactive); (rat, strain Sprague-Dawley Spartan, females, in drinking water, site: liver, lesion: neoplastic nodule, dosed 104 weeks, study length 104 weeks) 414 mg/kg/day (inactive); (rat, strain Sprague-Dawley Spartan, females, in drinking water, site: mammary gland, lesion: fibroadenoma, dosed 104 weeks, study length 104 weeks) 679 mg/kg/day (inactive); (rat, strain Sprague-Dawley Spartan, females, inhaled, site: mammary gland, lesion: adenocarcinoma, dosed 78 weeks, study length 104 weeks) 49.8 mg/kg/day (inactive); (rat, strain Sprague-Dawley Spartan, females, inhaled, site: mammary gland, lesion: fibroadenoma, dosed 78 weeks, study length 104 weeks) 16 mg/kg/day (inactive). For the same molecule, the TD50 was 22900 mg/kg/day (inactive) (rat, strain Sprague-Dawley Spartan, males, in drinking water, site: liver, lesion: hepatocellular carcinoma, dosed 104 weeks, study length 104 weeks); 0.501 mg/kg/day (rat, strain Sprague-Dawley, females, by gavage, site: liver, lesion: angiosarcoma, dosed 52 weeks, study length 136 weeks); 119 mg/kg/day (rat, strain Sprague-Dawley, females, inhaled, site: any site (literature study), lesion: several types, types named in the paper, dosed 104 weeks, study length 150 weeks); 847 mg/kg/day (rat, strain Sprague-Dawley, females, inhaled, site: liver, lesion: several types, types named in the paper, dosed 104 weeks, study length 150 weeks); 5.32 mg/kg/day (rat, strain Sprague-Dawley, males, by gavage, site: any site (literature study), lesion: several types, types named in the paper, dosed 52 weeks, study length 136 weeks). The carcinogen call reads like this: (mouse, strain Charles River CD1, females, inhaled, site: liver, lesion: hemangiosarcoma, dosed 26 weeks, study length 78 weeks) “negative (inactive)”; (mouse, strain Charles River CD1, females, inhaled, site: liver, lesion: hepatocellular tumor, dosed 26 weeks, study length 78 weeks) “negative (inactive)”; (mouse, strain Charles River CD1, females, inhaled, site: lung, lesion: alveolar/bronchiolar tumor, dosed 26 weeks, study length 78 weeks) “negative (inactive)”; (mouse, strain Charles River CD1, males, inhaled, site: liver, lesion: hepatocellular tumor, dosed 26 weeks, study length 78 weeks) “negative (inactive)”; (mouse, strain Charles River CD1, males, inhaled, site: lung, lesion: alveolar/bronchiolar tumor, dosed 26 weeks, study length 78 weeks) “negative (inactive)”; (rat, strain Charles River CD (Sprague-Dawley), females, inhaled, site: liver, lesion: several types, types named in the paper, dosed 26 weeks, study length 78 weeks) “negative (inactive)”. The carcinogen call by setting is: (rat, strain Charles River CD (Sprague-Dawley), females, inhaled, site: liver, lesion: several types, types named in the paper, dosed 43 weeks, study length 95 weeks) “negative (inactive)”; (rat, strain Charles River CD (Sprague-Dawley), males, inhaled, site: liver, lesion: several types, types named in the paper, dosed 26 weeks, study length 78 weeks) “negative (inactive)”; (rat, strain Charles River CD (Sprague-Dawley), males, inhaled, site: liver, lesion: several types, types named in the paper, dosed 43 weeks, study length 95 weeks) “negative (inactive)”; (rat, strain Fischer 344, females, by gavage, site: any site (literature study), lesion: several types, types named in the paper, dosed 104 weeks, study length 104 weeks) “negative (inactive)”; (rat, strain Fischer 344, males, by gavage, site: any site (literature study), lesion: several types, types named in the paper, dosed 104 weeks, study length 104 weeks) “negative (inactive)”; (rat, strain Sprague-Dawley Spartan, females, in drinking water, site: pituitary gland, lesion: adenoma, dosed 104 weeks, study length 104 weeks) “negative (inactive)”. In addition, the carcinogen call was “negative (inactive)” (rat, strain Sprague-Dawley Spartan, females, inhaled, site: liver, lesion: cholangioma, dosed 78 weeks, study length 104 weeks); “negative (inactive)” (rat, strain Sprague-Dawley Spartan, males, in drinking water, site: liver, lesion: neoplastic nodule, dosed 104 weeks, study length 104 weeks); “negative (inactive)” (rat, strain Sprague-Dawley Spartan, males, inhaled, site: liver, lesion: sarcoma, dosed 78 weeks, study length 104 weeks).

For the molecule `O=S(=O)(O)c1ccc2c(N=Nc3ccc(S(=O)(=O)O)c4ccccc34)c(O)c(S(=O)(=O)O)cc2c1`, the TD50 was 632 mg/kg/day (rat, strain Mongrel, both sexes, in feed, site: any site (literature study), lesion: several types, types named in the paper, dosed 108 weeks, study length 108 weeks); 3320 mg/kg/day (rat, strain Non-inbred, both sexes, in feed, site: any site (literature study), lesion: several types, types named in the paper, dosed 143 weeks, study length 143 weeks); 49500 mg/kg/day (rat, strain Non-inbred, both sexes, in feed, site: liver, lesion: hepatoma, dosed 143 weeks, study length 143 weeks); 1640 mg/kg/day (inactive) (rat, strain Not specified, females, in feed, site: any site (literature study), lesion: several types, types named in the paper, dosed 64 weeks, study length 64 weeks); 6130 mg/kg/day (rat, strain Wistar, both sexes, in feed, site: abdomen, lesion: malignant lymphoma, dosed 91 weeks, study length 91 weeks). The carcinogen call is “negative (inactive)” (rat, strain Not specified, females, in feed, site: liver, lesion: one or several types, types not named, dosed 64 weeks, study length 64 weeks); “negative (inactive)” (rat, strain Not specified, males, in feed, site: any site (literature study), lesion: several types, types named in the paper, dosed 64 weeks, study length 64 weeks); “negative (inactive)” (rat, strain Not specified, males, in feed, site: liver, lesion: one or several types, types not named, dosed 64 weeks, study length 64 weeks); “negative (inactive)” (rat, strain Sprague-Dawley, females, in feed, site: any site (literature study), lesion: one or several types, types not named, dosed 52 weeks, study length 52 weeks); “negative (inactive)” (rat, strain Sprague-Dawley, females, in feed, site: liver, lesion: one or several types, types not named, dosed 52 weeks, study length 52 weeks).

With `O=C1C2(Cl)C3(Cl)C4(Cl)C(Cl)(Cl)C5(Cl)C3(Cl)C1(Cl)C5(Cl)C24Cl` (stereo unspecified), the TD50 by setting is: (mouse, strain B6C3F1, females, in feed, site: any site (literature study), lesion: several types, types named in the paper, dosed 80 weeks, study length 90 weeks) 1.57 mg/kg/day; (mouse, strain B6C3F1, females, in feed, site: liver, lesion: hepatocellular adenoma + hepatocellular carcinoma + neoplastic nodule, dosed 80 weeks, study length 90 weeks) 1.62 mg/kg/day; (mouse, strain B6C3F1, females, in feed, site: liver, lesion: hepatocellular carcinoma, dosed 80 weeks, study length 90 weeks) 1.62 mg/kg/day; (mouse, strain B6C3F1, males, in feed, site: any site (literature study), lesion: several types, types named in the paper, dosed 80 weeks, study length 89 weeks) 0.705 mg/kg/day; (mouse, strain B6C3F1, males, in feed, site: liver, lesion: hepatocellular adenoma + hepatocellular carcinoma + neoplastic nodule, dosed 80 weeks, study length 89 weeks) 0.705 mg/kg/day; (mouse, strain B6C3F1, males, in feed, site: liver, lesion: hepatocellular carcinoma, dosed 80 weeks, study length 89 weeks) 0.705 mg/kg/day. In addition, the TD50 is 29.3 mg/kg/day (mouse, strain B6C3F1, males, in feed, site: lung, lesion: alveolar/bronchiolar adenoma + alveolar/bronchiolar carcinoma, dosed 80 weeks, study length 89 weeks); 1.83 mg/kg/day (rat, strain Osborne-Mendel, females, in feed, site: any site (literature study), lesion: several types, types named in the paper, dosed 80 weeks, study length 109 weeks); 2.96 mg/kg/day (rat, strain Osborne-Mendel, females, in feed, site: liver, lesion: hepatocellular adenoma + hepatocellular carcinoma + neoplastic nodule, dosed 80 weeks, study length 109 weeks); 1.42 mg/kg/day (inactive) (rat, strain Osborne-Mendel, males, in feed, site: any site (literature study), lesion: several types, types named in the paper, dosed 80 weeks, study length 109 weeks); 2.49 mg/kg/day (rat, strain Osborne-Mendel, males, in feed, site: liver, lesion: hepatocellular adenoma + hepatocellular carcinoma + neoplastic nodule, dosed 80 weeks, study length 109 weeks); 0.199 mg/kg/day (rat, strain Sprague-Dawley, males, in feed, site: liver, lesion: neoplastic nodule, dosed 91 weeks, study length 91 weeks).

The values above are taken from PubChem BioAssay AID1745844 (Carcinogenic Potency Database (CPDB), 2022).
